Measurements: US20250262167A1, “COMPOUNDS, TARGETS AND PATHWAYS FOR MACROPHAGE MODULATION” (Massachusetts Institute of Technology, priority 2020, published 2025)
Where two headings read alike, the source gives them in different places.

Assays:
[1] = system: human primary macrophages
Method: Total protein lysates were isolated from either mouse ImKCs with or without DPI treatment for 6 and 12 hrs or human primary macrophages with or without DPI treatment for 12 hrs at the indicated concentrations. Equal amounts of total proteins from whole-cell lysates were subjected to Western blotting analysis. β-actin was used as a loading control. Shown are representative data of two independent experiments. […] P values were calculated by student t-test. * P<0.05, ** P<0.01. n.s. not significant.
Proteins were extracted from cells with RIPA buffer. Protein concentration was quantified by BCA Protein Assay Kit (Pierce Biotechnology). Samples containing 20 μg total protein were resolved on a 10% SDS-PAGE gel and electro-transferred onto a PVDF membrane (Millipore Corporation). The membrane was blocked in 5% (w/v) fat-free milk in PBST (PBS containing 0.1% Tween-20). […] The blot was washed twice in PBST and then incubated with anti-Rabbit HRP-conjugated secondary antibody (Cell Signaling Technology, 1:2000) in 5% fat-free milk. The membrane was washed twice in PBST and subjected to protein detection by ECL Plus Western Blotting Detection System (GE Healthcare) before being exposed to a Kodak BioMax XAR film.

[2] = not given; remark: listed apart in the source
[3] = system: Kupffer cells (KCs); conditions: HFD mice
Method: Single cell suspension was prepared from mice from FIG. 24A after 8 weeks on HFD (6 mice per group), stained with anti-F4/80, anti-CD11b and anti-Gr-1. F4/80^+CD11b^+Gr1^low macrophages were purified by cell sorting followed by RNAseq. Shown are differentially expressed genes among the three groups. […] M1-type polarization is expressed as positive scores whereas M2-type polarization is expressed as negative scores.
Mouse livers were dissected and digested with Collagenase IV (Roche). Single cell suspension was stained with anti-F4/80, anti-CD11b and anti-Gr-1. F4/80^+CD11b^+Gr1^low macrophages were sorted by flow cytometry (BD Aria). RNAs were extracted with RNeasy MinElute Kit (Qiagen), converted into cDNA and sequenced using Next-Generation Sequencing (Illumina). RNA-seq data were aligned to the human genome (version hg19) and raw counts of each genes of each sample were calculated with bowtie2 2.2.3 (Langmead et al. 2009) and RSEM 1.2.15 (Li et al. 2011). Differential expression analysis was performed using the program edgeR at P<0.05 with a two-fold change (Robinson et al. 2010). The gene expression level across different samples was normalized and quantified using the function of cpm. DEGs were annotated using online functional enrichment analysis tool DAVID (Huang et al. 2007).

[4] = system: mouse bone marrow macrophages (BMMs); test: Development and function of TAM/M2-like macrophages in vitro (qPCR, flow cytometry); type: cell-based
Method: DEGs were identified by edgeR at P<0.05 with at least 2 fold-change. Data for genes that were not classified as differentially expressed are plotted in black. […] Mouse BMMs were cultured in normal medium with or without 2.5 μM thiostrepton for 24 hrs (group 1), or cultured in B16F10 tumor cell conditioned medium (CM) with or without 2.5 μM thiostrepton for 24 hrs (group 2), or cultured with B16F10 tumor cell CM for 24 hrs first and then treated with 2.5 μM thiostrepton for another 24 hrs (group 3). The transcript levels of the indicated genes were quantified by qPCR. Data were summarized from two independent experiments. […] Mouse BMMs were treated with thiostrepton for 24 hrs. Untreated and treated macrophages were co-cultured with equal number of B16F10 melanoma cells for 12 hrs. The number of tumor cells were quantified by flow cytometry after subtracting macrophages from total number of cells. Data were summarized from three independent experiments. ** P<0.01 by T-test.
Expression of MHCII, CD80, iNOS, Arg1 and CD206 were quantified by flow cytometry. Shown are representative staining profiles of treated (red) and untreated (dark) TAMs from two independent experiments. […] Alternatively, mouse BMMs were polarized with IL-4/IL-13 (group 3) or lactic acid (group 5) for 24 hrs first and then either not treated or treated with […] thiostrepton for another 24 hrs. The transcript levels of the indicated genes were quantified by qPCR. Data are summarized from two independent experiments.
Mouse BMMs were not treated or treated with […] thiostrepton for 24 hours in normal medium (group 1) or in the presence of IL4/IL13 (group 2), or mouse BMMs were polarized with IL4/IL13 for 24 hours and then either not treated or treated with […] thiostrepton for 24 hours (group 3). RNA was isolated and the transcript levels of the indicated genes were quantified by PCR. Data, shown as mean±s.d., were summarized from two independent experiments. * P<0.05 and ** P<0.01 by T-test. […] Data are shown as mean±s.e.m. FIGS. 19C-19D show flow cytometry analysis of TAM (F4/80^+CD11b^+Ly6C^−Ly6G^−), inflammatory monocytes (F4/80′^intCD11b^+Ly6C^+Ly6G^−) and monocytes (F4/80^−CD11b^+Ly6C^+Ly6G^+) in the tumors of mice treated with DMSO, TA99, cucurbitacin I, and cucurbitacin I plus TA99 18 days after tumor engraftment. Shown are representative F4/80 versus CD11b staining profiles gating on CD45+ cells and MHCII histograms gating on macrophages from c.
Mouse bone marrow-derived macrophages (mBMM) were prepared as described previously^54. Briefly, fresh bone marrow cells were isolated from B6 mice. Cells were plated into 6-well plate with 1×10^6/mL in complete RPMI with 2-mercaptoethanol and cultured for 6 days with fresh medium change every 2 days. mBMMs were differentiated to resemble TAMs in the presence of 10 ng/mL mIL-4 and mIL-13 (Peprotech) or 25 mM lactate acid for 24 hrs or tumor conditioned medium (CM). To prepare CM, 70% confluent B16F10 cultured were replaced with fresh medium and the tumor medium was collected and filtered ([…]) 24 hrs later. The mixture of 3 volumes of tumor medium with 1 volume of complete RPMI for mBMM serves as the CM. Expression of Arg, Fizz1 and Vegfa were quantified by qPCR to assess the development of TAMs. Other genes of Tnf, Il1b, Nos2, Cxcl2, Ccl5, Ym1 and Tgfb serve as macrophage activating markers. To assay the tumor growth inhibition, mBMMs (10,000 cells per well in 96 well plate) were treated with thiostrepton for 24 hrs and then cocultured with equal number of B16 melanoma cells in fresh complete RPMI for 12 hrs. The conditioned medium treated or not treated with thiostrepton were collected and filtered. The numbers of B16 melanoma cells were cultured for 12 hrs with conditioned medium or conditioned medium heated at 95° C. for 5 min. Tumor cells were quantified by flow cytometry to determine the macrophage-dependent killing function. […]

[5] = system: hMDM with anti-CD20 labelled human B lymphoma cells (GMB); test: ADCP of human macrophages; type: cell-based; design: dose or concentration left out as unconfirmed; conditions: co-culture 2 hrs
Method: Conditioned medium (CM) was collected and filtered. B16F10 melanoma cells were cultured for 12 hrs with CM or CM heat-inactivated at 95° C. for 5 min. The number of tumor cells were quantified by flow cytometry. Data were summarized from two independent experiments. * P<0.05 by T-test. P values are shown based on t-test. […] Mouse BMMs (FIG. 14B) or hMDM (FIG. 14C) were treated with […] thiostrepton for 24 hrs, then co-cultured with equal number of eFluro670 and anti-CD20 labelled human B-cell lymphoma cells for 2 hrs, and analyzed by flow cytometry. Macrophages that have phagocytosed tumor cells are identified as efluro670+ and CD14+. Shown are representative eFluro670 histograms gating on CD14+ macrophages from three different experiments.
To examine whether thiostrepton-activating macrophages or conditioned medium have effects on tumor cell growth, BMMs were treated with thiostrepton for 24 hrs. Equal numbers of primed BMMs and melanoma cells (B16F10) were co-cultured for 12 hrs. […] Thiostrepton elevated ADCP of both human and mouse macrophages (FIGS. 14B-14C).

[6] = BMMs in B16F10 conditioned medium, 2.5 μM, 24 hrs, qPCR
[7] = BMMs in B16F10 conditioned medium, flow cytometry
[8] = IL-4/IL-13 and lactic acid-polarized BMMs, qPCR

Row | SMILES | transcription of genes in the glycolysis pathway ([1]; 50 nM, 24 hours, RNAseq) | HK, GAPDH, LDHA and enolase at the protein level ([1]; human primary macrophages, dose- and time-dependent) | blood glucose (15 and 30 min after glucose injection) | blood glucose (6 hours after DPI 2 mg/kg i.p.) | HFD-induced elevation of serum AST and ALT ([2]; HFD 8 weeks) | weight gain ([2]; HFD 8 weeks, 2 mg/kg i.p. every five days, vs vehicle) | glucose tolerance ([2]; HFD 8 weeks, vs vehicle) | lipid deposition in the liver ([2]; HFD 8 weeks, vs vehicle) | iWAT ([2]; after 8 weeks on HFD) | expression of genes involved in glycolysis, oxidative phosphorylation and fatty acid metabolism in KCs [3] | expression of genes involved in inflammation in KCs [3] | macrophage polarization index (MPI) of KCs [3] | expression of M1-associated genes Tnf, Il1b, Cxcl2 and Nos2 [4, 6] | expression of TAM/M2-associated genes Arg1, Fizz1, Vegfa, Ym1 and Tgfb [4, 6] | ARG1 [4, 7] | MHCII, CD80 and iNOS [4, 7] | expression of Arg1, Fizz1, Ym1 and Tgfb [4, 8] | expression of Tnf, Il1b, Cxcl2 and Ccl5 [4, 8] | ADCP [5]
1 | c1ccc2c(c1)[I+]c1ccccc1-2 [Diphenyleneiodonium chloride] | stimulates transcription | upregulation | significantly lower levels | significantly lower level | significantly reduced | significantly reduced | significant increase | significantly reduced | significantly lower levels | upregulated | significantly suppressed | reprogrammed to an intermediated phenotype | – | – | – | – | – | – | –
2 | C=C(NC(=O)C(=C)NC(=O)c1csc(C2=N[C@@H]3c4csc(n4)[C@H]4NC(=O)c5csc(n5)[C@H]([C@](C)(O)[C@@H](C)O)NC(=O)[C@H]5CSC(=N5)/C(=C/C)NC(=O)[C@H]([C@@H](C)O)NC(=O)c5csc(n5)[C@]3(CC2)NC(=O)[C@H](C)NC(=O)C(=C)NC(=O)[C@H](C)NC(=O)[C@H]([C@@H](C)CC)N[C@@H]2C=Cc3c([C@H](C)O)cc(nc3[C@H]2O)C(=O)O[C@@H]4C)n1)C(N)=O [Thiostrepton] | – | – | – | – | – | – | – | – | – | – | – | – | up-regulated | inhibited | down-regulation | up-regulation | inhibited | elevated | elevated
